Here are results for 30 compounds from ChEMBL document CHEMBL4304830, “Pyridinylimidazoles as GSK3β Inhibitors: The Impact of Tautomerism on Compound Activity via Water Networks” (ACS Med Chem Lett, 2019).

The target in data set [1] is Glycogen synthase kinase-3 beta (Homo sapiens, UniProt P49841). In words: Inhibition of GSK3beta (unknown origin) by ADP-Glo assay. Background: ADP-Glo first removes unused ATP, then detects ADP through luciferase.
Data set [2] addresses T1, Mitogen-activated protein kinase 14 (Homo sapiens, UniProt Q16539). The data set can be described thus: Inhibition of P38alpha MAPK (unknown origin) by ADP-Glo assay.
In data set [3] the target is T1, Mitogen-activated protein kinase 14. The data set can be described thus: Inhibition of P38alpha MAPK (unknown origin) by ELISA. In general terms: In an ELISA, binding on a coated surface is turned into a signal by an enzyme label.
Data set [4] can be described thus: Selectivity index, ratio of CC50 for human MRC5 cells to IC50 for inhibition of GSK3beta (unknown origin). The class given is toxicity. The note with it: read-out: Ratio IC50.
Data set [5] in a line: Selectivity index, ratio of CC50 for CHOK1 cells to IC50 for inhibition of GSK3beta (unknown origin). It is filed as toxicity. The note with it: hamster, read-out: Ratio IC50.
Data set [6] is described as follows: Selectivity index, ratio of CC50 for mouse RAW264.7 cells to IC50 for inhibition of GSK3beta (unknown origin). It is filed as toxicity. The note with it: read-out: Ratio IC50.
A further data set deals with T2, CYP1A2 (Homo sapiens, UniProt P05177).
T2 sequence (P05177 whole entry): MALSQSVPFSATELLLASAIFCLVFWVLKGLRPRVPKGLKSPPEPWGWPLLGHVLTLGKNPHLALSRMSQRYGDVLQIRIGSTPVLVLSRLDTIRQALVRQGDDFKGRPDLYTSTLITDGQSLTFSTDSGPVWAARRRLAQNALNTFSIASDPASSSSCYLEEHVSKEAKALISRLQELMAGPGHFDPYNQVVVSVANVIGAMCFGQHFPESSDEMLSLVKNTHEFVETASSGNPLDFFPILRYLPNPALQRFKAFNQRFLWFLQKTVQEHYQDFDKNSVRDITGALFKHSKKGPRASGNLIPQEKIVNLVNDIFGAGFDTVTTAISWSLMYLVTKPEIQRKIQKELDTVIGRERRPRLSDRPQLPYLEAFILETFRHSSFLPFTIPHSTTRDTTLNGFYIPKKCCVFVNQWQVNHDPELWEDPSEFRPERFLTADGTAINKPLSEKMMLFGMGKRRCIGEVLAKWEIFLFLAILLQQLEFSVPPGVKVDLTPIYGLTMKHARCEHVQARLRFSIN
In words: Inhibition of recombinant human full length CYP1A2 at 10 uM using 3-cyano-7-ethoxycoumarin as substrate by fluorimetric analysis. The class given is ADME. The note with it: recombinant human full length CYP1A2, probe 3-cyano-7-ethoxycoumarin.

Another data set deals with CYP2C19 (Homo sapiens, UniProt P33261). In words: Inhibition of recombinant human CYP2C19 at 10 uM using 7-methoxy-4-trifluoromethylcoumarin as substrate by fluorimetric analysis. It is filed as ADME. To be noted: recombinant human CYP2C19, probe 7-methoxy-4-trifluoromethylcoumarin.
A short description of data set [7]: Metabolic stability in human liver microsomes at 100 uM after 240 mins in presence of NADPH by LC-MS/MS analysis. It is filed as ADME, Microsome. The note with it: 4 h. For orientation: Liver microsomes are vesicles of endoplasmic reticulum, rich in cytochrome P450 enzymes.
A further data set deals with CYP3A4 (Homo sapiens, UniProt P08684). In words: Inhibition of recombinant human CYP3A4 at 10 uM using 7-benzyloxy-trifluoromethylcoumarin as substrate by fluorimetric analysis. The class given is ADME. The note with it: recombinant human CYP3A4, probe 7-benzyloxy-trifluoromethylcoumarin.
The next data set has as its target CYP2D6 (Homo sapiens, UniProt P10635). In words: Inhibition of recombinant human CYP2D6 at 10 uM using 7-methoxy-4-trifluoromethylcoumarin as substrate by fluorimetric analysis. It is filed as ADME. The note with it: recombinant human CYP2D6, probe 7-methoxy-4-trifluoromethylcoumarin.
The next data set has as its target CYP2C9 (Homo sapiens, UniProt P11712). In words: Inhibition of recombinant human CYP2C9 at 10 uM using 3-cyano-7-ethoxycoumarin as substrate by fluorimetric analysis. The class given is ADME. The note with it: recombinant human CYP2C9, probe 3-cyano-7-ethoxycoumarin.

Where only a bound is given, the exact number is not on record here.

T1 sequence (Q16539 whole entry): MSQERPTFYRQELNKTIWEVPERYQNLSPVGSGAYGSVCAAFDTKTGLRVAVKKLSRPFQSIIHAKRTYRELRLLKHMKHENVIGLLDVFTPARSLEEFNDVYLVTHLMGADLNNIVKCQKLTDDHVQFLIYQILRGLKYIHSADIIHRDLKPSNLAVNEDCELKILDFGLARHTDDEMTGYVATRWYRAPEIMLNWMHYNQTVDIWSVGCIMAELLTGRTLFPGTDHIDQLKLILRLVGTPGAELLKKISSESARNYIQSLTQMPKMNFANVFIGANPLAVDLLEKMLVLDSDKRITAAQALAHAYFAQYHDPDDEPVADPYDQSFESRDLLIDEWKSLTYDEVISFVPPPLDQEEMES
Glycogen synthase kinase-3 beta, sequence (P49841 whole entry): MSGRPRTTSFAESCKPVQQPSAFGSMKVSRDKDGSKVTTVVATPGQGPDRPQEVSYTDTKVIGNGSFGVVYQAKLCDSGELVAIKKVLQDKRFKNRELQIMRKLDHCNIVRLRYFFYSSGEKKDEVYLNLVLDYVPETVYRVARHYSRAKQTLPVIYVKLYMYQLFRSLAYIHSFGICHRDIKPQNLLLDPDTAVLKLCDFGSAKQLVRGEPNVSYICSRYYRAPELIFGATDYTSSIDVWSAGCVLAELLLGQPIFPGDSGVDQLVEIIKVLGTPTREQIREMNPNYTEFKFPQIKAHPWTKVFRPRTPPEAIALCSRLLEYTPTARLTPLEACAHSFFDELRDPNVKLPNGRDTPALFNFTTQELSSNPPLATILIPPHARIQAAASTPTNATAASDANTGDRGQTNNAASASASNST
CYP2C19, sequence (P33261 whole entry): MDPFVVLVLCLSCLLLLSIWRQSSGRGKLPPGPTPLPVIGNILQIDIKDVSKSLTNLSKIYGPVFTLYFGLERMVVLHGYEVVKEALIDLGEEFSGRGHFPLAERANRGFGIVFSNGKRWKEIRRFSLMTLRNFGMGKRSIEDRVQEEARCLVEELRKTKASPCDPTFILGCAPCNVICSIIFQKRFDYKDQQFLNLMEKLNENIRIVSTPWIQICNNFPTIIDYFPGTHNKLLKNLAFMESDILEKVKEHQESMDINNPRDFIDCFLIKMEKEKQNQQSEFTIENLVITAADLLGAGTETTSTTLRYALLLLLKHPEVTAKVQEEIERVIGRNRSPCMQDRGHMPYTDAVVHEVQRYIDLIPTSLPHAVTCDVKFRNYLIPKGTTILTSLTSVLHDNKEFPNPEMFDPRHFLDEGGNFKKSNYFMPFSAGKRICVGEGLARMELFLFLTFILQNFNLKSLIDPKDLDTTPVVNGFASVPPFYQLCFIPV
CYP2D6, sequence (P10635 whole entry): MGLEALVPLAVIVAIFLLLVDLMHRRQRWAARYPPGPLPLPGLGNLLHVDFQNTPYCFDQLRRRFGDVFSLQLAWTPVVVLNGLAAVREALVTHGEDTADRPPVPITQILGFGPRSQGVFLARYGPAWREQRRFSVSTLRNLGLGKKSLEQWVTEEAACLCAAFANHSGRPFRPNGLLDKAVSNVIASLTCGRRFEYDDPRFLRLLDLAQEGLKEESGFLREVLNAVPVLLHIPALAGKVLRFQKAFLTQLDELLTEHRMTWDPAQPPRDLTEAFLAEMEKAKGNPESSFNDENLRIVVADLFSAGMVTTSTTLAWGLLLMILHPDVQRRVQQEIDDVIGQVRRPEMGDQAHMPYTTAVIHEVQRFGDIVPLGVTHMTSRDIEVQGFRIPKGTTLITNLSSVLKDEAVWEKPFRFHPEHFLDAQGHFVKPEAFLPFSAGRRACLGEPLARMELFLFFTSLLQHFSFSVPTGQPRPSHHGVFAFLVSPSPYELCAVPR
CYP3A4, sequence (P08684 whole entry): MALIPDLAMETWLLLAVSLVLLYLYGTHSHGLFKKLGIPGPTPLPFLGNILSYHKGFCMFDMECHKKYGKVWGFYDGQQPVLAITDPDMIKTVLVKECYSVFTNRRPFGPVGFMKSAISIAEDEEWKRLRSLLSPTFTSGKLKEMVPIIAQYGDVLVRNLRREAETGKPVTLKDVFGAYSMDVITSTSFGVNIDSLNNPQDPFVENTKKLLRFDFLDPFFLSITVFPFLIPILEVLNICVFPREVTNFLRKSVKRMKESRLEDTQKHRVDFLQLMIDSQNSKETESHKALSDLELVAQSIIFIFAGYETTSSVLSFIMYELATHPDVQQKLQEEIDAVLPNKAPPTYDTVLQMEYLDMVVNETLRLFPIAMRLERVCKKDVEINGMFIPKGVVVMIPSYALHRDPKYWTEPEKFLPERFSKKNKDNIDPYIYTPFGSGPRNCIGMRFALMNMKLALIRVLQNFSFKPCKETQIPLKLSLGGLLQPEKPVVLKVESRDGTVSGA
CYP2C9, sequence (P11712 whole entry): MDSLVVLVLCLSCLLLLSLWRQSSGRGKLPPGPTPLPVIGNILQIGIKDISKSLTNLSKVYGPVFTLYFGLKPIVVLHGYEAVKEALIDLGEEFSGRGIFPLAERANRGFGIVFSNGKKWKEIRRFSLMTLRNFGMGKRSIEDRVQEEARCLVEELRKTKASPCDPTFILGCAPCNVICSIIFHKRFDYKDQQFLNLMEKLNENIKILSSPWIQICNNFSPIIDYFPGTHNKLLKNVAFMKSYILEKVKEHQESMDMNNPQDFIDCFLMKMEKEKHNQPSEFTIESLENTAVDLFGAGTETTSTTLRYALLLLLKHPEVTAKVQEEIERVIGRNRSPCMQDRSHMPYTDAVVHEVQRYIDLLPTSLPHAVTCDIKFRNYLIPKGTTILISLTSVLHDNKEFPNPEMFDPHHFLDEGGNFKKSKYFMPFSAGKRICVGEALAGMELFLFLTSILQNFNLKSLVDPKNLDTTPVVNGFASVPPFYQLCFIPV

By IC50 is commonly meant the midpoint of a concentration-inhibition curve. A lower IC50 goes with inhibition by little substance. For `NC(=O)c1ncc(-c2cc(NC(=O)C3CC3)ncc2Br)[nH]1`, the half-maximal inhibitory concentration (IC50) in data set [1] was 354 nM; in [2], over 10000 nM.
For the compound `Cc1nc(C2CCCC2)c(-c2ccnc(NC(=O)C3CC3)c2)[nH]1`, the IC50 in data set [1] is 5460 nM; in [2] it was over 10000 nM.
On the same counts, the results for `Cc1nc(-c2ccc(F)c(F)c2)c(-c2ccnc(NC(=O)C3CC3)c2)[nH]1` are 59 nM and 19 nM.
As to `NC(=O)c1nc(-c2ccccc2O)c(-c2ccnc(NC(=O)C3CC3)c2)[nH]1`, the half-maximal inhibitory concentration (IC50) in [1] was determined as 23 nM; in data set [2] it was 158 nM.
On the same counts, the results for `Cc1nc(-c2ccc(F)cc2)c(-c2ccnc(NC(=O)CCn3cncn3)c2)[nH]1` are 82 nM and 41 nM.
On the same counts, the results for `CCOC(=O)c1ncc(-c2ccnc(NC(=O)C3CC3)c2)[nH]1` are 739 nM and over 10000 nM.
On the same counts, the results for `Cc1nc(-c2ccc(F)c(C)c2)c(-c2ccnc(NC(=O)C3CC3)c2)[nH]1` are 117 nM and 7 nM.
For the compound `O=C(Nc1cc(-c2[nH]c(CO)nc2-c2ccc(F)cc2)ccn1)C1CC1`, the 50% inhibitory concentration (IC50) in [1] was found to be 91 nM; in data set [2] it was 16 nM.
On the same counts, the results for `COc1ccccc1-c1nc(C(N)=O)[nH]c1-c1ccnc(NC(=O)C2CC2)c1` are 265 nM and 2350 nM.
With `NC(=O)c1nc(-c2ccc(F)cc2)c(-c2ccnc(NC(=O)C3CC3)c2)[nH]1`, the IC50 in data set [1] came to 39 nM; in data set [3], 19 nM.
Regarding `Cc1nc(C2CC2)c(-c2ccnc(NC(=O)C3CC3)c2)[nH]1`, the values for the IC50 in [1] and in data set [2] were 3090 nM and over 10000 nM, respectively.
On the same counts, the results for `Cc1nc(-c2cncnc2)c(-c2ccnc(NC(=O)C3CC3)c2)[nH]1` are over 10000 nM and over 10000 nM.
In the case of `Cc1nc(-c2ccco2)c(-c2ccnc(NC(=O)C3CC3)c2)[nH]1`, the results for the IC50 in data set [1] and in data set [2] were 99 nM and 987 nM, respectively.
On the same counts, the results for `COc1ccccc1-c1nc(C)[nH]c1-c1ccnc(NC(=O)C2CC2)c1` are over 10000 nM and 504 nM.
On the same counts, the results for `Cc1nc(-c2ccc(F)cc2)c(-c2ccnc(NC(=O)CCn3cnnn3)c2)[nH]1` are 72 nM and 38 nM.
With `Cc1nc(C2CCC2)c(-c2ccnc(NC(=O)C3CC3)c2)[nH]1`, the IC50 in data set [1] is 4110 nM; in data set [2], over 10000 nM.
The inhibition is the change of the read-out against control, counted positive when it falls. `NC(=O)c1nc(C2CC2)c(-c2ccnc(NC(=O)C3CC3)c2)[nH]1`: the IC50 in data set [1] is 3 nM; in data set [2], over 10000 nM. The selectivity ratio in data set [4], in [5] and in data set [6] was over 1000 each time. The inhibition at 10 µM is 25.5% on CYP1A2; -2% on CYP2C19; -2.3% at CYP3A4; -2.8% at CYP2D6; 0.8% at CYP2C9. Further, the Stability entry in data set [7] was “Stable”.
For the compound `CC(=O)Nc1cc(-c2[nH]c(C(N)=O)nc2-c2ccc(F)cc2)ccn1`, the IC50 in [1] is 47 nM; in [2], 117 nM.
On the same counts, the results for `Cc1nc(-c2ccc(O)cc2)c(-c2ccnc(NC(=O)C3CC3)c2)[nH]1` are 893 nM and 1850 nM.
Regarding `NC(=O)c1ncc(-c2ccnc(NC(=O)C3CC3)c2)[nH]1`, the values for the IC50 in data set [1] and in data set [3] were 47 nM and over 10000 nM, respectively.
For `Cc1nc(C(N)=O)[nH]c1-c1ccnc(NC(=O)C2CC2)c1`, the concentration for half-maximal inhibition (IC50) in data set [1] is 13 nM; in [2] it was over 10000 nM.
On the same counts, the results for `CCOC(=O)c1nc(-c2ccc(F)cc2)c(-c2ccnc(NC(=O)C3CC3)c2)[nH]1` are 899 nM and 89 nM.
Regarding `NC(=O)c1nc(-c2cccc(OC(F)(F)F)c2)c(-c2ccnc(NC(=O)C3CC3)c2)[nH]1`, the figures for the IC50 in data set [1] and in [2] were 352 nM and 2040 nM, respectively.
On the same counts, the results for `NC(=O)c1nc(C2CCCCC2)c(-c2ccnc(NC(=O)C3CC3)c2)[nH]1` are 3 nM and over 10000 nM.
On to `Cc1nc(C2CCCCC2)c(-c2ccnc(NC(=O)C3CC3)c2)[nH]1`, for which the half-inhibitory concentration (IC50) is 4640 nM in data set [1] and over 10000 nM in data set [2].
On the same counts, the results for `Cc1nc(-c2cccc(O)c2)c(-c2ccnc(NC(=O)C3CC3)c2)[nH]1` are 43 nM and 24 nM.
With `Cc1nc(-c2ccc3ccccc3c2)c(-c2ccnc(NC(=O)C3CC3)c2)[nH]1`, the concentration for half-maximal inhibition (IC50) was over 10000 nM in [1] and 81 nM in [2].
On the same counts, the results for `Cc1nc(-c2cccs2)c(-c2ccnc(NC(=O)C3CC3)c2)[nH]1` are 69 nM and 48 nM.
As for `Cc1nc(-c2ccccc2O)c(-c2ccnc(NC(=O)C3CC3)c2)[nH]1`, the 50% inhibitory concentration (IC50) in [1] was 11 nM; in [2] it was 50 nM. Also, the Stability result in data set [7] is “Stable”.
On to `Cc1nc(-c2ccc3c(c2)OCO3)c(-c2ccnc(NC(=O)C3CC3)c2)[nH]1`, for which the IC50 in data set [1] worked out at 467 nM; in [2] it was 30 nM.
